Measured values published in patent publication US20240166596A1, “SULFAMOYL BENZENE DERIVATIVES AND USES THEREOF” (AphioTx Inc., priority 2021, published 2024).

Molecular target: T1, rPanx1 (Rattus norvegicus Pannexin-1) expressed in 293T cells (Rattus norvegicus, UniProt P60570)
T1 construct: expressed in transfected cells; host or cells: Human embryonic kidney-293T cells (ATCC), transient Lipofectamine 2000 transfection
Assay: Whole-cell patch-clamp of Panx1 currents in transfected 293T cells
Type: cell-based, Homo sapiens
Conditions: voltage ramp -80 to +80 mV, various doses
Description: To further compare the effects of probenecid, Compounds 1 and 5 on Pannexin-1 channels […] Panx-1 was expressed in embryonic kidney-293T cells (293T) and channel activity was assessed at various doses of each compound.
Rattus norvegicus Pannexin-1 (rPanx1) complementary DNA (cDNA) was cloned between BamHI and SalI sites in a pRK5 expression vector (pRK5-rPanx1). Enhanced green fluorescent protein (EGFP) plasmid (pEGFP-C1) was commercially purchased (addgene).
Human embryonic kidney-293T cells (293T) were purchased from ATCC and routinely maintained in the laboratory. Adherent 293T cells were grown in Dulbecco's modified Eagle's medium (Thermo Fisher) supplemented with 10% fetal bovine serum (Thermo Fisher) and 1% penicillin-streptomycin (10,000 U/mL; Thermo Fisher) at 37° C. in a 5% CO2 humidified growth incubator. 293T cells between the passages 6-20 were used for experiments. For patch-clamp recordings, 293T cells reaching 40-60% confluency on 35 mm culture plates were transiently transfected using Lipofectamine 2000 (Thermo Fisher) 36-48 hours before experiments, using the manufacturer's protocol. 293T cells were transfected with 2.5 μg pRK5-rPanx1 and 0.5 μg pEGFP-C1 cDNAs at a mixed ratio of 5:1 to identify positively transfected cells.
On the day of experiments, transiently transfected 293T cells overexpressing rPanx1 and EGFP cDNAs were seeded onto poly-d-lysine coated glass coverslips at least 2 hours before recordings. […] Data was acquired using Clampex (v.10) software and an Axon Digidata 1550A digitizer (Axon Instruments) at 10 kHz, with currents analyzed offline in Clampfit software (v.10.7). […]
293T cells were voltage clamped at −60 mV in whole-cell configuration and exposed to a 300 ms voltage ramp (−80 to +80 mV) before stepping back to −60 mV to record rPanx1 voltage-sensitive currents. Baseline currents were first measured in extracellular solution before perfusion of drug compounds in incrementally increasing concentrations. […]

T1 sequence (P60570 whole entry): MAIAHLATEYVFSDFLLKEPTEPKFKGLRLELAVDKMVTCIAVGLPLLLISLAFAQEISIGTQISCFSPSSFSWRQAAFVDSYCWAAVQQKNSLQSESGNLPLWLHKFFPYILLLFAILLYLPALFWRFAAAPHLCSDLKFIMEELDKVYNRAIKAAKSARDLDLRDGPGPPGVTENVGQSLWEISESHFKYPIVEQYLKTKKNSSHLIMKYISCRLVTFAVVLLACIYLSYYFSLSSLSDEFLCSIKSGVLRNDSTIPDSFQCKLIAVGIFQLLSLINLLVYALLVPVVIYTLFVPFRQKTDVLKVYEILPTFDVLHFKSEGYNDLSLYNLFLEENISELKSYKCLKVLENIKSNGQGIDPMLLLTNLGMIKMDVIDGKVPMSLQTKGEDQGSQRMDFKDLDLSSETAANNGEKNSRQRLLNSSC

SMILES: CCCN(CCC)S(=O)(=O)c1ccc(C(O)(C(F)(F)F)C(F)(F)F)cc1 [Compound 1, 4-(1,1,1,3,3,3-hexafluoro-2-hydroxypropan-2-yl)-N,N-dipropylbenzenesulfonamide]
- Panx1 inhibitory potency relative to Probenecid (patch-clamp): more potent
